Legend:
Type in all cases: in vivo
[1] = system: stubby root nematodes (Paratrichodorus), stunt nematodes (Tylenchorhynchus spp.), root lesion nematodes (Pratylenchus spp.) and root knot nematodes …; test: Nematicide field trial on carrots: % deformed carrots
Method: Garden carrots were grown in the open field. The soil contained high levels of stubby root nematodes (Paratrichodorus), stunt nematodes (Tylenchorhynchus spp.), root lesion nematodes (Pratylenchus spp.) and root knot nematodes (Meloidogyne spp.).
(§1) An experimental pattern at Complete Randomized Blocks with four replicas was adopted. Besides the experimental products, each test also included an untreated control and a treatment with the standard commercial product VYDATE 10L (10%) applied in accordance to label instructions.
In carrots, nematodes cause deformation such as stunting, dwarfing, twisting, splitting and bearding. For these experiments, the total percentage of deformed carrots were considered, as these are not marketed for human consumption and are of no commercial interest.
Three different tests have been performed (Tables 9, 10 and 11), each containing an untreated and commercial reference control. All treatments were statistically different from untreated control.

[2] = system: root-knot nematode (Meloidogyne spp); test: Nematicide field trial on tomato: root galling and yield; settings: for Average root galling: 0-5 Lamberti scale
Method: Open field tomatoes (Lycopersicon esculentum, variety incas) were grown on sandy soil with a natural root-knot nematode (Meloidogyne spp) population. Soil samples, collected prior to planting, contained on average 113 J2 juveniles per 100 g soil. A program of 5 applications with intervals of about 14 days was started two days after transplantation.
as §1
The read-outs are the average yield of the marketable tomatoes per plant (Table 7). The level of nematode attack of the root system at the time of harvesting was assessed by means of the lamberti scoring.

[3] = system: sugar beet (variety GEA (KWS)); test: Pot Assay 3: phytotoxicity, number of sugar beet plants emerged
Method: Each compound or compound mixture as described herein was tested in 4 different rates with 4 replicates per rate. One pot per replicate was used in which 18 beava sugar beet seeds (variety GEA (KWS)) were sown. After crop germination, the number of plants was reduced to 10 plants. The 4 rates added to the soil of the tested compounds or compound mixtures were 0.05 mg, 0.20 mg, 1 mg and 5 mg. These amounts translate to field application rates respectively as 30, 120, 600 and 3000 g per hectare.
Phytotoxicity assessments were carried by assessing any possible effects of the chemicals on the crop, such as chlorosis, yellowing, stunting, in comparison to the untreated control without nematodes.

[4] = system: Meloidogyne incognita nematodes; test: Pot Assay 1: Meloidogyne infection of potato, egg masses/galls on roots; settings: potato in pot, week 8 after inoculation
Outline: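 Potato (cv. Bintje) grown in sand pots at 14–18 °C in greenhouse. Compound in DMSO spread on sand one day before inoculation with ~1500 M. incognita juveniles; concentration assumes full diffusion in pot. Root galls counted 8 weeks post-inoculation, plant development also scored; triplicates, aldicarb and DMSO/untreated controls.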

Meloidogyne incognita = test: Root infestation on agar plate: root knot count on potato microplant roots; settings: 60 μM in agar, galls counted 5 weeks after inoculation, four replicates
Outline: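 Potato cv. Desirée microplants were grown 2-3 weeks on agar at 20 °C, and compound diffused in from DMSO for 2 days (60 μM in agar). Plates were then inoculated with ~400 axenic M. incognita juveniles. Root galls were counted 5 weeks later in the dark at 20 °C, with four replicates per compound and root toxicity noted.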

[5] = Product Rate 4 (footnote g ai/ha)
[6] = Product Rate 8 (footnote g ai/ha)

## CCCCc1c(C)nc(NCC)nc1OS(=O)(=O)N(C)C [XLIII]
[1]; test of Table 9, Product Rate 500 g ai/ha
  % total deformed: 35.53%
[1]; test of Table 9, Product Rate 1500 g ai/ha
  % total deformed: 41.34%
[1]; test of Table 9, Product Rate 3000 g ai/ha
  % total deformed: 41.02%
[2]; [5]
  Average yield of marketable fruits: 1.28 kg/plant/pot
  Average root galling: 1.1
[2]; [6]
  Average yield of marketable fruits: 1.25 kg/plant/pot
  Average root galling: 1.6
[3]; Rate 1 mg
  # crops emerged (max 18): 18
[3]; Rate 5 mg
  # crops emerged (max 18): 18
[4]; 0.5 μM
  number of egg masses (galls) on roots, Replicate 3: 30
[4]; 2 μM
  number of egg masses (galls) on roots, Replicate 2: 35
  number of egg masses (galls) on roots, Replicate 3: 25
[4]; 10 μM
  number of egg masses (galls) on roots, Replicate 1: 15
  number of egg masses (galls) on roots, Replicate 2: 5
  number of egg masses (galls) on roots, Replicate 3: 10
[4]; 50 μM
  number of egg masses (galls) on roots, Replicate 1: 0
  number of egg masses (galls) on roots, Replicate 2: 15
  number of egg masses (galls) on roots, Replicate 3: 5
Meloidogyne incognita
  Root knot count, average of the replicate counts: 8

Reference: patent US20090209605A1, “NEMATICIDAL COMPOSITIONS” (Devgen N.V., priority 2004, published 2009)
